Laboratory results reported in patent US20250064799A1, “ORAL FORMULATIONS OF LEVOSIMENDAN FOR TREATING PULMONARY HYPERTENSION WITH HEART FAILURE WITH PRESERVED EJECTION FRACTION” (Tenax Therapeutics, Inc., priority 2021, published 2025).
“And” between values parts separate entries of the source, which are not always exact repeats. Equal values may be shown once.

What was measured:
[1] = heart failure subjects; cited from earlier work
[2] = tested on: phosphodiesterase-3 (PDE3); settings: cited from earlier work
[3] = tested on: whole cardiomyocytes and isolated contractile apparatus preparations; settings: cited from earlier work
[4] = tested on: PDE4; settings: cited from earlier work
[5] = OR-1896 plasma concentration, I.V. to oral transition pharmacokinetic study; assay type: in vivo, human; settings: individual patients
From the text: FIGS. 6A-6W: Pharmacokinetic Data from the Levosimendan I.V. to Oral Transition Study. […] FIGS. 6D-6U show patient OR-1896 plasma concentrations (ng/ml, y-axis) for each patient in the I.V. to oral transition study. The respective patient number is indicated above each graph. FIG. 6V: Individual Patient Change in 6-minute walk distance (6MWD) at Week 6 (y-axis) by OR-1896 plasma concentration (Week 6) (x-axis). FIG. 6W: Individual Patient Change in Heart Rate (Week 0 to Week 6) (y-axis) by OR-1896 plasma concentration (Week 6) (x-axis).

[6] = tested on: patients with PH-HFpEF; settings: in vivo; cited from earlier work
[7] = tested on: HFpEF, HFrEF, or PH-HFpEF patients; settings: empagliflozin alone; cited from earlier work
[8] = tested on: patients with left heart disease; settings: in vivo; cited from earlier work
[9] = tested on: PH-HFpEF patients; settings: in vivo; cited from earlier work
[10] = tested on: PH-HFpEF patients; settings: after 12 weeks, 52 patients; cited from earlier work
[11] = tested on: patients with HFpEF; settings: long term treatment, 216 patients; cited from earlier work
[12] = tested on: HFpEF patients; settings: inhaled 3 times a day for 4 weeks; cited from earlier work
[13] = tested on: HFpEF patients; settings: in vivo; cited from earlier work

Which results are given for `CC(=O)Nc1ccc(C2=NNC(=O)C[C@H]2C)cc1` [OR-1896, (R)—N-(4-(4-methyl-6-oxo-1,4,5,6-tetraihydropyridazin-3-yl)phenyl) acetamide]?
half-life [1]: 70 to 80 h; potency in inhibition of PDE3 relative to levosimendan [2]: profoundly less potent; inotropic effects relative to levosimendan [3]: equipotent; potency in inhibition of PDE4 relative to levosimendan [4]: profoundly less potent; OR-1896 Plasma concentration, Week 6 ([5]; daily 3 mg oral levosimendan): 13.0 ng/mL and 8.44 ng/mL and 4.04 ng/mL and 8.73 ng/mL and 29.0 ng/mL and 8.15 ng/mL and 1.97 ng/mL and 13.4 ng/mL and 34.1 ng/mL and 7.72 ng/mL and 22.9 ng/mL and 16.5 ng/mL and 12.7 ng/mL and 21.9 ng/mL and 12.3 ng/mL and 5.15 ng/mL; OR-1896 Plasma concentration, Week 4 ([5]; oral levosimendan titration): 8.86 ng/mL and 6.14 ng/mL and 6.28 ng/mL and 1.39 ng/mL and 12.6 ng/mL and 11.6 ng/mL and 32.9 ng/mL and 7.96 ng/mL and 13.1 ng/mL and 6.50 ng/mL and 5.90 ng/mL; OR-1896 Plasma concentration, Week 8 ([5]; oral levosimendan, patients titrated at Week 6): 3.47 ng/ml and 38.7 ng/ml and 69.9 ng/ml and 2.93 ng/ml and 25.5 ng/ml (2×) and 10.9 ng/ml; OR-1896 Plasma concentration, Week 0 ([5]; weekly I.V. levosimendan): 4.46 ng/mL and 2.22 ng/mL and 0.730 ng/mL and 0.197 ng/mL and 12.2 ng/mL and 3.16 ng/mL and 0.787 ng/mL and 6.89 ng/mL and 36.1 ng/mL and 2.11 ng/mL and 0.00 ng/mL and 6.32 ng/mL and 2.81 ng/mL and 4.86 ng/mL and 3.77 ng/mL and 1.19 ng/mL

What does the source list for `COc1ccccc1Oc1c(NS(=O)(=O)c2ccc(C(C)(C)C)cc2)nc(-c2ncccn2)nc1OCCO` [bosentan]?
clinical outcomes versus placebo [6]: worse clinical outcomes; six minute walk test or echocardiographic evaluation of pulmonary hypertension [6]: no improvements

Which “change in exercise capacity as measured by 6MWD” value [7] does the source give for `OC[C@H]1O[C@@H](c2ccc(Cl)c(Cc3ccc(O[C@H]4CCOC4)cc3)c2)[C@H](O)[C@@H](O)[C@@H]1O` [empagliflozin] here?
The value was “did not demonstrate a material change”.

For `CCCNS(=O)(=O)Nc1ncnc(OCCOc2ncc(Br)cn2)c1-c1ccc(Br)cc1` [macitentan], which “hemodynamic parameters (pulmonary vascular resistance, mean pulmonary arterial pressure, pulmonary artery wedge pressure)” value [8] is on record?
The value was “no change”.

With `COC(=O)N(C)c1c(N)nc(-c2nn(Cc3ccccc3F)c3ncccc23)nc1N` [riociguat] as the compound, how does the “mean pulmonary arterial pressure (primary outcome)” value [9] read?
The value was “primary outcome was not achieved”.

With `CCCc1nn(C)c2c(=O)[nH]c(-c3cc(S(=O)(=O)N4CCN(C)CC4)ccc3OCC)nc12` [sildenafil] as the compound, how does the “change in mPAP” value [10] read?
The value was “no change”.

What about the “six-minute walk time, clinical status, or quality of life” value [11] of the same compound?
Its value is “failed to improve”.

With `O=NO` [sodium nitrite] as the compound, how does the “peak oxygen consumption during cardiopulmonary exercise (primary endpoint) and secondary endpoints” value [12] read?
Its value is “unable to demonstrate any improvement”.

Which primary endpoints [13] does the source give for `COC(=O)Nc1c(N)nc(-c2nn(Cc3ccccc3F)c3ncc(F)cc23)nc1N` [vericiguat] here?
The primary endpoints was “no significant changes”.
